Data: US4062731A, “Production of uricase from micrococcus luteus” (Eastman Kodak Company, priority 1976, dated 1977)

Molecular target: uricase from Micrococcus luteus NRRL B-8166
Assay: Spectrophotometric uricase assay (disappearance of uric acid at 290 nm)
Assay type: biochemical
Conditions: assay in 50 mM KPi buffer pH 8.6, 30° C; read-out: inhibition constant for oxonate
Procedure: Uricase was assayed spectrophotometrically by following the disappearance of uric acid at 290 nm using a modification of the procedure described by Mahler et. al, J. Biol. Chem., p. 625, 216 (1955). Assay tubes contained 2.7 ml 50 mM KPi buffer pH 8.6, 0.1 mM sodium EDTA, 0.05 ml 6 mM urate, plus enzyme and water to give a final volume of 3.0 ml. Changes or additions to the assay mixtures were made when necessary. Tubes were incubated for 5 minutes at 30° C; the reaction was started by adding enzyme. Molar extinction coefficient for uric acid at 290 nm is 12,300. Activity was expressed in units of uricase activity, where a unit is that amount of enzyme which catalyzes the oxidation of one μmole of uric acid per minute at 30° C and pH 8.6.

`O=C(O)c1nc(=O)[nH]c(=O)[nH]1` [oxonate] was tested, and the Ki was 4.5 µM.
